Measurements reported in patent US20050009894A1 (Aventis Pharma S.A., priority 2001, published 2005).
pIC50: −log10 of the molar value. Read-outs that look alike come from different tables or passages of the source.

Molecular target: T1, human KDR enzyme (Homo sapiens, UniProt P35968)
T1 construct: The cytoplasmic domain of human KDR enzyme is cloned in the form of a GST fusion; GST; made in house; host or cells: SF21 insect cells (baculovirus, pFastBac)
Assay: Phosphorylation of the substrate PLCγ by the enzyme KDR in vitro (flashplate technique)
Format: biochemical
Settings: for pIC50: Table VII, degrees of activity by IC50 range; for IC50: read-out: IC50 (μM) on inhibition of the phosphory-lation of PLCγ by KDR
Method in brief: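 GST-fused human KDR cytoplasmic domain (Sf21 baculovirus, ~60% pure; 100 ng/well) phosphorylating 2 μg GST-PLCγ SH2-SH3 fragment in MOPS pH 7.2 with MgCl2/MnCl2, 1 h at 37° C. Started with γ33P-ATP plus cold ATP (2 μM in start solution); flashplate radioactivity. % inhibition vs no-compound control; IC50 from dose-response curves.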

T1 sequence (P35968 786-1356 limits assumed): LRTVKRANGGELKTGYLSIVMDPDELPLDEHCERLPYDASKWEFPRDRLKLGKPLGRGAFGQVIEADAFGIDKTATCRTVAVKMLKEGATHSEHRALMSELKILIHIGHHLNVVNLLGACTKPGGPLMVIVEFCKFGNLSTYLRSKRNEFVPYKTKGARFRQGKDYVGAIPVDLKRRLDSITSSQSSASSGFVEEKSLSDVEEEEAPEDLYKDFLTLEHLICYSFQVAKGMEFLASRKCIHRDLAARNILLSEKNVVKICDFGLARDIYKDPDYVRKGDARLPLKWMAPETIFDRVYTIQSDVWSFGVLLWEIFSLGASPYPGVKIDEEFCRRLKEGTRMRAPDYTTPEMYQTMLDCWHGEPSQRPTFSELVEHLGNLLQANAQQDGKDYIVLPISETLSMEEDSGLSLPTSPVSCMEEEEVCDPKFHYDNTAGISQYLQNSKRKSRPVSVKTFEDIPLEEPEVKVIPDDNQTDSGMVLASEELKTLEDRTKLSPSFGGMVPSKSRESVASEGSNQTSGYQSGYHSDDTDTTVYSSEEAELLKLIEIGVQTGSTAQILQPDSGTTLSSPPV

O=C(Oc1cc(-c2nc3ccccc3[nH]2)[nH]n1)c1ccc(C(F)(F)F)cc1 [Example 227, 4-Trifluoromethyl-benzoic acid 5-(1H-benzoimidazol-2-yl)-1H-pyrazol-3-yl ester]
pIC50 (read-out: Activity): < 5.52

COC(=O)c1ccc2nc(-c3n[nH]c4ccccc34)[nH]c2c1 [Example 14, Methyl 2-(1H-indazol-3-yl)-3H-benzimidazole-5-carboxylate]
IC50: 1.2 µM

Oc1ccc(-c2ccc3nc(-c4[nH]nc5ccccc45)[nH]c3c2)cc1 [Example 122, 4-[2-(2H-Indazol-3-yl)-3H-benzoimidazol-5-yl]-phenol]
pIC50 (read-out: Activity): 5.52 to 6.52

O=C(c1ccc2[nH]c(-c3n[nH]c4ccccc34)nc2c1)N1CCOCC1 [Example 7, 2-(1H-Indazol-3-yl)-1H-benzimidazole-5-carboxylic acid N-morpholinoamide]
IC50: 0.72 µM

c1ccc2c(-c3nc4ccc(-c5ccc6c(c5)OCO6)cc4[nH]3)[nH]nc2c1 [Example 117, 3-(6-Benzo[1,3]dioxole-5-yl-1H-benzoimidazol-2-yl)-2H-indazole]
pIC50 (read-out: Activity): 5.52 to 6.52

CS(=O)(=O)c1ccc(-c2ccc3nc(-c4[nH]nc5ccccc45)[nH]c3c2)cc1 [Example 145, 3-[6-(4-Methanesulfonyl-phenyl)-1H-benzoimidazol-2-yl]-2H-indazole]
pIC50 (read-out: Activity): < 5.52

O=C(NCc1ccc(-c2cc(Cl)cc(Cl)c2)cc1)c1ccc2[nH]c(-c3n[nH]c4ccccc34)nc2c1 [Example 163, 2-(1H-Indazol-3-yl)-1H-benzoimidazole-5-carboxylic acid (3′,5′-dichloro-biphenyl-4-ylmethyl)-amide]
pIC50 (read-out: Activity): < 5.52

O=C(Cc1ccccc1)Oc1cc(-c2nc3ccccc3[nH]2)[nH]n1 [Example 219, Phenyl-acetic acid 5-(1H-benzoimidazol-2-yl)-1H-pyrazol-3-yl ester]
pIC50 (Activity): < 5.52

O=C(NCc1cccc(OC(F)(F)F)c1)c1cccc2nc(-c3n[nH]c4ccccc34)[nH]c12 [Example 85, 2-(1H-Indazol-3-yl)-3H-benzoimidazole-4-carboxylic acid 3-trifluoromethoxy-benzylamide]
pIC50 (read-out: Activity): < 5.52

CCOCCCNC(=O)c1cccc2nc(-c3n[nH]c4ccccc34)[nH]c12 [Example 74, 2-(1H-Indazol-3-yl)-3H-benzoimidazole-4-carboxylic acid (3-ethoxy-propyl)-amide]
pIC50 (read-out: Activity): < 5.52

O=C(Oc1cc(-c2nc3ccccc3[nH]2)[nH]n1)c1ccccc1 [Example 217, Benzoic acid 5-(1H-benzoimidazol-2-yl)-1H-pyrazol-3-yl ester]
pIC50 (read-out: Activity): 5.52 to 6.52

N#Cc1ccc(COc2cc(-c3nc4ccccc4[nH]3)[nH]n2)cc1 [Example 192, 4-[5-(1H-Benzoimidazol-2-yl)-1H-pyrazol-3-yloxymethyl]-benzonitrile]
pIC50 (read-out: Activity): < 5.52

O=S(=O)(Oc1cc(-c2nc3ccccc3[nH]2)[nH]n1)c1cccc(Cl)c1Cl [Example 194, 2,3-Dichloro-benzenesulfonic acid 5-(1H-benzoimidazol-2-yl)-1H-pyrazol-3-yl ester]
pIC50 (read-out: Activity): < 5.52

Clc1cc(Cl)cc(-c2ccc3nc(-c4[nH]nc5ccccc45)[nH]c3c2)c1 [Example 104, 3-[6-(3,5-Dichloro-phenyl)-1H-benzoimidazol-2-yl]-2H-indazole]
pIC50 (read-out: Activity): < 5.52

O=C(NCc1ccccc1C(F)(F)F)c1ccc2[nH]c(-c3n[nH]c4ccccc34)nc2c1 [Example 47, 2-(1H-Indazol-3-yl)-1H-benzoimidazole-5-carboxylic acid 2-trifluoromethyl-benzylamide]
pIC50 (read-out: Activity): 5.52 to 6.52

CCOCCCNC(=O)c1ccc2[nH]c(-c3n[nH]c4ccccc34)nc2c1 [Example 29, 2-(1H-Indazol-3-yl)-1H-benzoimidazole-5-carboxylic acid (3-ethoxy-propyl)-amide]
pIC50 (read-out: Activity): 5.52 to 6.52

O=C(NCc1ccc([N+](=O)[O-])cc1)c1cccc2nc(-c3n[nH]c4ccccc34)[nH]c12 [Example 79, 2-(1H-Indazol-3-yl)-3H-benzoimidazole-4-carboxylic acid 4-nitro-benzylamide]
pIC50 (read-out: Activity): < 5.52

O=C(Oc1cc(-c2nc3ccccc3[nH]2)[nH]n1)C1CCCC1 [Example 223, Cyclopentanecarboxylic acid 5-(1H-benzoimidazol-2-yl)-1H-pyrazol-3-yl ester]
pIC50 (read-out: Activity): < 5.52

O=C(NCc1ccc(-c2ccccn2)s1)c1ccc2[nH]c(-c3n[nH]c4ccccc34)nc2c1 [Example 173, 2-(1H-Indazol-3-yl)-1H-benzoimidazole-5-carboxylic acid (5-pyridin-2-yl-thiophen-2-ylmethyl)-amide]
pIC50 (read-out: Activity): 5.52 to 6.52

COc1cc(-c2ccc3nc(-c4[nH]nc5ccccc45)[nH]c3c2)cc(OC)c1OC [Example 127, 3-[6-(3,4,5-Trimethoxy-phenyl)-1H-benzoimidazol-2-yl]-2H-indazole]
pIC50 (read-out: Activity): 5.52 to 6.52

CC(C)CNC(=O)c1ccc2[nH]c(-c3n[nH]c4ccccc34)nc2c1 [Example 10, 2-(1H-Indazol-3-yl)-1H-benzimidazole-5-carboxylic acid N-(isobutyl)amide]
IC50: 0.34 µM

Oc1cccc(-c2ccc3nc(-c4[nH]nc5ccccc45)[nH]c3c2)c1 [Example 121, 3-[2-(2H-Indazol-3-yl)-3H-benzoimidazol-5-yl]-phenol]
pIC50 (read-out: Activity): 5.52 to 6.52

Clc1ccc(COc2cc(-c3nc4ccccc4[nH]3)[nH]n2)cc1Cl [Example 188, 2-[5-(3,4-Dichloro-benzyloxy)-2H-pyrazol-3-yl]-1H-benzoimidazole]
pIC50 (read-out: Activity): 5.52 to 6.52

O=C1CCc2cc(C(=O)COc3cc(-c4nc5ccccc5[nH]4)[nH]n3)ccc2N1 [Example 209, 6-{2-[5-(1H-Benzoimi-dazol-2-yl)-1H-pyrazol-3-yloxy]-acetyl}-3,4-dihydro-1H-quinolin-2-one]
pIC50 (read-out: Activity): < 5.52

O=C(NCc1c(F)cc(Cl)cc1F)c1ccc2[nH]c(-c3n[nH]c4ccccc34)nc2c1 [Example 176, 2-(1H-Indazol-3-yl)-1H-benzoimidazole-5-carboxylic acid (2,6-difluoro-4-chloro-benzyl)amide]
pIC50 (read-out: Activity): > 6.52
